Source: patent EP4772497A1, “POLYMORPHS OF NITROGEN-CONTAINING HETEROCYCLIC COMPOUNDS, AND USES THEREOF” (BNH Research Co., Ltd., priority 2023, dated 2025)
Values after ≈ are worked out from the molar mass of the structure shown.

How the values were obtained:
[1] = Solubility assay of crystalline form A in 17 solvents; assay type: physicochemical; conditions: thermodynamic from solid
Procedure: For solubility assay, about 5 mg or about 10 mg of crystalline form A was weighed into a 2 mL glass vial. A 20 µL aliquot of each of the 17 solvents listed in Table 8 was added to the vial to dissolve the drug substance. For about 5 mg of crystalline form A, the drug substance was dissolved at 25°C; and for about 10 mg of crystalline form A, the drug substance was dissolved at 50°C. To aid dissolution, vortexing and sonication were applied to facilitate dissolution, and the maximum volume of each solvent added was 1 mL.

[2] = Parallel artificial membrane permeability assay (PAMPA) for BBB permeability; assay type: in vitro ADME; conditions: PAMPA, pH 7.2, BBB lipid membrane, PBS (pH 7.2); read-out: PAMPA Pe
Procedure: • PAMPA: PMBBB-096 Kit • Assay format: 96-well plate • Reference substance: Imipramine (H) (10 µM) • Test substance concentration: 10 µM • Number of replicates: 3 • Reaction time: 6 hours at 25°C on a shaker (75 - 80 rpm) • Analytical method: LC-MS/MS • Data processing: Pe (cm/s)
The test compounds (crystalline forms A and C) were dissolved in DMSO at a concentration of 10 mM […] to prepare standard solutions. Next, dried brain lipids were resuspended in 600 µL dodecane to prepare a BBB lipid solution in dodecane. Pipetting up and down was repeated (~100 times) until all dried brain lipids were dissolved (vortexing or sonication may be helpful). A 10 µM reaction solution in PBS containing 5% DMSO was prepared.
The experiments were conducted in a 96-well plate using the prepared reaction solution of each test compound and the BBB lipid solution according to the following assay procedure. • 1. 500 µL of a 500 µM test compound solution (prepared by mixing 25 µL of a 10 mM test compound + 475 µL of PBS (pH 7.2) in DMSO) was prepared in a separate centrifuge tube. When a permeability control was used, it was diluted to 500 µM using PBS (prepared by mixing 25 µL of permeability control + 475 µL of PBS (pH 7.2)). • 2. For each test compound and control, a 200 µM equilibrium standard was prepared in a separate tube (by mixing 80 µL of 500 µM test compound or control with 120 µL of PBS (pH 7.2)). […] The absorbance spectrum from 200 nm to 500 nm was measured at 10 nm intervals to determine the peak absorbance of the test compounds. […] The peak absorbances of the high-permeability and low-permeability controls are 250 nm and 270 nm, respectively.
For the compounds and permeability controls, the permeability rate (Pe) was determined using the following equation: Pe = C × −ln(1−(ODA)/(ODE))cm/s [formula]
Here, ODA is the absorbance of the acceptor solution minus the blank, and ODE is the absorbance of the equilibrium standard minus the blank. For each absorbance value, the peak absorbance determined for each test was used. […]

C[C@@H]1CC[C@H](C(=O)O)CN1C(=O)Cc1ccc(F)cc1Cl [Crystalline form A, (3S,6R)-1-(2-(2-chloro-4-fluorophenyl)acetyl)-6-methylpiperidine-3-carboxylic acid]
solubility ([1]; organic solvent or mixture, 1,4-Dioxane, 25°C): > 250 mg/mL | solubility ([1]; organic solvent or mixture, 1,4-Dioxane, 50°C): > 500 mg/mL | solubility ([1]; organic solvent or mixture, 2-MeTHF, 25°C): > 250 mg/mL | solubility ([1]; organic solvent or mixture, 2-MeTHF, 50°C): > 500 mg/mL | solubility ([1]; organic solvent or mixture, Acetone, 25°C): 125 to 250 mg/mL (≈ 398 to 797 mM) | solubility ([1]; organic solvent or mixture, Acetone, 50°C): > 500 mg/mL | solubility ([1]; organic solvent or mixture, Acetonitrile, 25°C): 41 to 50 mg/mL (≈ 131 to 159 mM) | solubility ([1]; organic solvent or mixture, Acetonitrile, 50°C): > 500 mg/mL | solubility ([1]; organic solvent or mixture, DMF, 25°C): > 250 mg/mL | solubility ([1]; organic solvent or mixture, DMF, 50°C): > 500 mg/mL | solubility ([1]; organic solvent or mixture, DMSO, 25°C): > 250 mg/mL | solubility ([1]; organic solvent or mixture, DMSO, 50°C): > 500 mg/mL | solubility ([1]; organic solvent or mixture, Dichloromethane, 25°C): > 250 mg/mL | solubility ([1]; organic solvent or mixture, Dichloromethane, 50°C): > 500 mg/mL | solubility ([1]; organic solvent or mixture, Ethanol, 25°C): 125 to 250 mg/mL (≈ 398 to 797 mM) | solubility ([1]; organic solvent or mixture, Ethanol, 50°C): > 500 mg/mL | solubility ([1]; organic solvent or mixture, Ethyl acetate, 25°C): 41 to 50 mg/mL (≈ 131 to 159 mM) | solubility ([1]; organic solvent or mixture, Ethyl acetate, 50°C): 250 to 500 mg/mL (≈ 797 to 1590 mM) | solubility ([1]; organic solvent or mixture, Heptane, 25°C): < 5 mg/mL | solubility ([1]; organic solvent or mixture, Heptane, 50°C): < 10 mg/mL | solubility ([1]; organic solvent or mixture, Isopropyl acetate, 25°C): 63 to 83 mg/mL (≈ 201 to 265 mM) | solubility ([1]; organic solvent or mixture, Isopropyl acetate, 50°C): 125 to 167 mg/mL (≈ 398 to 532 mM) | solubility ([1]; organic solvent or mixture, MTBE, 25°C): 16 to 20 mg/mL (≈ 51 to 63.7 mM) | solubility ([1]; organic solvent or mixture, MTBE, 50°C): 33 to 50 mg/mL (≈ 105 to 159 mM) | solubility ([1]; organic solvent or mixture, Methanol, 25°C): > 250 mg/mL | solubility ([1]; organic solvent or mixture, Methanol, 50°C): > 500 mg/mL | solubility ([1]; organic solvent or mixture, Methyl ethyl ketone, 25°C): 83 to 125 mg/mL (≈ 265 to 398 mM) | solubility ([1]; organic solvent or mixture, Methyl ethyl ketone, 50°C): 250 to 500 mg/mL (≈ 797 to 1590 mM) | solubility ([1]; organic solvent or mixture, Tetrahydrofuran, 25°C): > 250 mg/mL | solubility ([1]; organic solvent or mixture, Tetrahydrofuran, 50°C): > 500 mg/mL | solubility ([1]; organic solvent or mixture, Toluene, 25°C): 17 to 25 mg/mL (≈ 54.2 to 79.7 mM) | solubility ([1]; organic solvent or mixture, Toluene, 50°C): 50 to 100 mg/mL (≈ 159 to 319 mM) | solubility ([1]; Water, 25°C): < 5 mg/mL | solubility ([1]; Water, 50°C): < 10 mg/mL | Papp at 6 h, 10 µM [2]: 0.00925 ×10⁻⁶ cm/s
